Reference: US11318139B2, “Methods for treating brain metastases using combinations of anti-P13K and anti-mTOR agents” (Dana-Farber Cancer Institute, Inc., priority 2016, dated 2022)

Assays:
DF-BM354 = experiment: In vivo treatment of orthotopic HER2-positive BCBM patient-derived xenograft DF-BM354 (bioluminescence imaging, survival); set-up: species or system mice; details: BKM120 PO 30 mg/kg QD; RAD001 PO 7.5 mg/kg QD; MEK162 PO 15 mg/kg; GNE-317 PO 40 mg/kg QD
Experimental: Luciferase-expressing tumors were then propagated in mice.
The signals were analyzed with CareStream MI Software.
All compounds were purchased from Haoyuan ChemExpress Co.
GNE-317 obtained from Genetcch was dissolved in 0.5% methylcellulose/0.2% Tween 80 and given oral once/day at 40 mg/kg.

[1] = statement with literature citation; cited from earlier work
[2] = system: PI3K pathway signaling (pAKT, pS6RP, p4EBP1), Ki67 and cleaved caspase-3 in DF-BM355 tumors; experiment: Pharmacodynamic IHC / Western blot analysis of treated DF-BM355 tumors; details: IHC after 4 days of treatment

In the case of `Nc1cc(C(F)(F)F)c(-c2cc(N3CCOCC3)nc(N3CCOCC3)n2)cn1` [BKM120, 5-(2,6-dimorpholin-4-ylpyrimidin-4-yl)-4-(trifluoromethyl)pyridin-2-amine], the “therapeutic response / tumor growth of DF-BM354 (bioluminescence imaging, survival)” value (from here on “therapeutic response / tumor growth”) (DF-BM354) is given as “neither BKM120 nor RAD001 monotherapy had meaningful effects”, the blood-brain barrier penetration [1] is given as “permeates the blood-brain barrier” and the “number of Ki67-positive cells (cell proliferation) in DF-BM355 tumors” value [2] is given as “did not decrease”.

In the case of `COC1(c2sc3c(N4CCOCC4)nc(-c4cnc(N)nc4)nc3c2C)COC1` [GNE-317, 5-(6-(3-methoxyoxetan-3-yl)-7-methyl-4-morpholinothieno[3,2-d]pyrimidin-2-yl)pyrimidin-2-amine], the “therapeutic response / tumor growth” value (DF-BM354) is listed as “marked regression” and the blood-brain barrier penetration [1] is listed as “effectively crossing the blood brain barrier”.

In the case of `CO[C@H]1C[C@@H]2CC[C@@H](C)[C@@](O)(O2)C(=O)C(=O)N2CCCC[C@H]2C(=O)O[C@H]([C@H](C)C[C@@H]2CC[C@@H](OCCO)[C@H](OC)C2)CC(=O)[C@H](C)/C=C(\C)[C@@H](O)[C@@H](OC)C(=O)[C@H](C)C[C@H](C)/C=C/C=C/C=C/1C` [RAD001], the “therapeutic response / tumor growth” value (DF-BM354) is listed as “neither BKM120 nor RAD001 monotherapy had meaningful effects” and the blood-brain barrier penetration [1] is listed as “demonstrated blood-brain barrier (BBB) penetrance”.
